According to patent US20230381312A1, “REDIRECTING GLUCOSE METABOLISM TO LIMIT STRESS AND IMPROVE ADOPTIVE CELL THERAPY” (University of Pittsburgh - Of the Commonwealth System of …, priority 2020, published 2023):

Key:
[1] = system: tumor-infiltrating T cells; assay: Signaling analysis of patient tumor-infiltrating T cells expanded with DCA (PD-1, Tim-3, IFN-gamma, TNF-alpha); format: cell-based, human; conditions: patient TIL expanded with DCA, FIG. 7C
Description: (§1) This method included obtaining a sample of tumor from a patient suffering from metastatic melanoma, making a single cell suspension, and expanding the T cells in a cell culture medium with IL-2 present in a concentration of 6000 IU/mL+/−DCA in addition to anti-CD3/anti-CD28 antibodies for a period of 10 days.
Signaling analysis were performed as described above.

[2] = system: human anti-CD19 CAR-T cells; assay: Metabolic flux rate experiments in human anti-CD19 CAR-T cells generated with DCA; format: cell-based; conditions: 5 mM DCA relative to hCD19 CAR, FIG. 8B
Description: On the first day (“day 0”), 1) fresh or frozen peripheral blood mononuclear (PBMCs) are seeded at 10×10^6 cells/10 mL in a T25 culture flask in T Cell Growth Media (TCGM), and 2) T cell stimulation cocktail is added to a final concentration of 50 ng/mL anti-CD3, 50 ng/mL anti-CD28, and 250 IU/mL IL-2. […] On day 3, 5) lentiviral supernatant is removed, and 6) cells are fed with new media to a concentration of 3×10^5 cells/mL and 5 mM DCA. On day 4, 7) a transfer of 5×10^6 cells/condition is made to G-Rex® 6 multi-well plates, filling TCGM+5 mM DCA to a volume of 100 mL/well. […] On day 10, 9) cells are frozen down to a concentration of 100×10^6 cells/mL. Standard T Cell Growth Media includes: 930 mL X-VIVO®-15 cell medium, 50 ml Human AB Serum, 10 ml 100× GlutaMAX® supplement, and 10 mL 1M HEPES.
FMC63 (human CD19 targeted CAR) human T cells were generated in the presence or absence of DCA. These cells were used to treat mice bearing A549 lung cancer tumors that were engineered to express hCD19.
Controls were prepared and human anti-CD19 CAR-T cells were cultured as described above. Metabolic flux rate experiments measuring OCR were also performed as described above.

T cells [3] = assay: Mitochondrial mass by MitoTracker FM in T cells cultured in DCA; format: cell-based, mouse; conditions: after culture in 5 mM DCA, FIG. 4E
T cells [4] = assay: Cytokine synthesis on restimulation after switch to low or high nutrient conditions; format: cell-based
Description: FIG. 15A is a schematic of the experimental protocol for FIGS. 15B and 15C.

EGFR BBz CAR-T cells = assay: Metabolic flux rate experiments (OCR, ECAR) in EGFR BBz CAR-T cells expanded with DCA; format: cell-based; conditions: for OCR analysis (metabolic phenotype): FIG. 9A; for ECAR analysis (metabolic phenotype): FIG. 9B
Description: Immunodeficient mice with a solid tumor (unmodified A549) were treated with adoptively transferred EGFR BBz CAR T cells that were expanded either in the presence or absence of DCA.
FIGS. 9A-9C depict metabolic flux rate experiments and flow cytometry measurements, showing that DCA can metabolically enhance a solid-tumor targeted CAR.
The UTD control was prepared as described above. Metabolic flux rate experiments and T cell preparation were performed as described above.

T cells [5] = assay: T cell survival and BCL2 expression after 10 days expansion in DCA (CellTrace Violet, flow cytometry); format: cell-based
Description: The impact of a PDHK1 inhibitor (DCA) on T cell survival was assessed by measuring expression of anti-apoptotic BLC2. […] The T cells were activated and expanded as described in Example 1, except the labeled PBMCs were cultured in media containing IL-2 for 48 hours, and the T cells were cultured in DCA or control conditions for 10 days. Experimental expansion conditions included culturing in 5 mM DCA or 10 mM DCA. Control conditions included 5 mM of glycolysis inhibitor 2-deoxyglucose (2DG), low glucose media, or PBS. The impact of DCA on T cell survival was assayed by evaluating CellTrace® Violet dilution with flow cytometry. Fresh X-VIVO®-15-based culture medium containing IL-2 and DCA or 2DG was added to the T cell cultures every two to three days for a total of ten days to permit outgrowth and expansion of the T cells.
A pairwise T test was performed on all day ten cultures (each concentration of DCA was compared to 0 mM DCA: *p<0.05, **p<0.01).

human T cells = assay: Metabolic flux rate experiments (OCR, SRC) in human T cells expanded in DCA; format: cell-based
Description: Metabolic flux rate experiments were performed to determine whether human T cells expanded in DCA show improved mitochondrial respiratory capacity. This example identically replicates the methods described in Example 3, except human T cells were used (derived from human healthy donor blood).
Metabolic flux rate measurements were performed using the CellDoctor™ device and methods described above. The CellDoctor™ device was configured to measure oxygen consumption rate (OCR) and extracellular acidification rate (ECAR), corresponding to proton flux, of cells that are adherent to the bottom of 24 well microplates. As described above, flux rate experiments were performed in a human T cell line expanded in either 5 mM DCA or a control group without DCA. FIG. 6A illustrates the use of an activation step (CD3/CD28) for 48 hours and a culturing step (Ctrl/DCA) for 10 days as described in Example 2.

T cells [6] = assay: Metabolic flux rate experiments (OCR, ECAR) in T cells expanded in DCA; format: cell-based, mouse
Description: The methods provided herein can include measurement of plural extracellular solutes and adjacent living cells disposed, for example, in a well of a multiwell microplate.
This apparatus can include an array of submersible sensors that enable rapid coordinated sensor stabilization within multiple cell-containing wells. It also includes compound storage and delivery apparatus, a pneumatic multiplexer, a structure for adding fluids to subsets or all of the multiple wells simultaneously, and a sensor structure permitting non-destructive measurement of the effect of addition of exogenous fluid to the respective wells, in combination with the ability to make and repeat measurements rapidly. Furthermore, the apparatus is designed to exploit a cartridge structure which permits repeated use of the apparatus for disparate cellular assays without requiring intermediate cleaning, and while eliminating the possibility of cross contamination between tests.
In use, the first step in a measurement sequence with the Seahorse XF instrument is the exchange of cell media to a type containing nearly no bicarbonate or other pH buffer in order to maximize the pH change caused by cellular proton flux.
Next, measurement probes fitted with an optical oxygen and pH sensor were placed in each well, and were raised and lowered to mix the cell media for approximately five minutes. Third, each probe was lowered into the cell media to stop at a precise point above the cells such that approximately 25 μL of media was sequestered in a way that impeded the diffusion of oxygen molecules and protons to the larger volume of media in the well. Fourth, a series of optical measurements of the two sensors on the probe bottom (in contact with the small volume of media above the cells) were made at intervals of 8 seconds and for a period of five minutes. Typically, the dissolved oxygen level decreased by approximately 10% and the pH decreased by approximately 0.1 units. A simple linear fit to the rate of change of oxygen and pH were used to determine the OCR and ECAR for each well. […]

[7] = system: tumor-infiltrating T cells; assay: Metabolic flux rate experiment (OCR) in tumor-infiltrating T cells of melanoma patients expanded in vitro with DCA; format: cell-based, human; conditions: patient TIL expanded 10 days, FIG. 7B
Description: Patient samples and PBMC samples were obtained from melanoma patients who were enrolled on institutional review board approved protocols. Cells from 5 different patients were used. PBMC were cryopreserved in 90% FBS plus 10% DMSO (Sigma, St. Louis. MO).
as §1
Metabolic flux rate experiments measuring OCR were also performed as described above.

[8] = 5 mM DCA relative to UTD control
[9] = 10 mM DCA relative to UTD control

## O=C(O)C(Cl)Cl [DCA, dichloroacetic acid]
[1]
  cytokine production (IFN-gamma and TNF-alpha): increase in cytokine production
  ratio of PD-1 negative T cells to PD-1 positive T cells: increasing ratio
  ratio of Tim-3 negative T cells to Tim-3 positive T cells: increasing ratio
[2]
  OCR at serial time points (metabolic phenotype): superior metabolic and therapeutic phenotype
T cells [3]
  mitochondrial mass (MitoTracker FM): increased
T cells [4]; cells cultured with DCA for 7 days, then low or high nutrient conditions for 14 hours, FIG. 15B-15C
  cytokine synthesis when restimulated after expansion: more proficient at synthesizing cytokines
T cells [4]; low nutrient: 1 mM glucose+0 mM pyruvate, 14 hours
  resistance to stress in low nutrient conditions: more resistant to stress
EGFR BBz CAR-T cells; [8]
  OCR analysis (metabolic phenotype): superior metabolic phenotype
  ECAR analysis (metabolic phenotype): superior metabolic phenotype
EGFR BBz CAR-T cells; [9]
  OCR analysis (metabolic phenotype): superior metabolic phenotype
  ECAR analysis (metabolic phenotype): superior metabolic phenotype
T cells [5]; T cells cultured in 5 mM or 10 mM DCA for 10 days vs 0 mM DCA
  T cell survival: significantly increased
T cells [5]; T cells cultured in DCA for 10 days, FIG. 3
  expression of the anti-apoptotic factor BCL2: enhanced expression
Human T cells; human T cells expanded in 5 mM DCA versus control, FIG. 6D
  Spare Respiratory Capacity (SRC, OCRmax-OCRbasal): at least 60
Human T cells; human T cells expanded in 5 mM DCA, FIG. 6C
  increase in OCR over baseline: at least 20 pmol/min
Human T cells; human T cells, CD3/CD28 48 hours then 5 mM DCA 10 days vs control, FIG. 6B
  OCR over time: dramatic increase
T cells [6]; T cells expanded in 5 mM DCA vs control cells, FIG. 4A
  OCR after sequential injection of FCCP and 2DG: OCR increased
T cells [6]; T cells expanded in 5 mM DCA, FIG. 4B
  increase in OCR over baseline: at least 30%
T cells [6]; T cells expanded in 5 mM DCA, FIG. 4C
  increase in ECAR over baseline: at least 10 mpH/min
[7]; 5 mM DCA relative to TIL control
  OCR at serial time points (metabolic phenotype): superior metabolic phenotype
[7]; 10 mM DCA relative to TIL control
  OCR at serial time points (metabolic phenotype): superior metabolic phenotype
